Reference: patent US20060153958A1, “Relating to flavour compositions” (priority 2003, published 2006)

Legend:
[1] = system: Streptococcus mutans R9; assay: Synergy of flavour material with fluoride in reducing acid production (bottle pH test); assay type: cell-based; details: flavour material at 250 ppm plus fluoride (NaF); 2% glucose; anaerobic incubation 18-24 hours; pH difference between broths
Experimental: (§1) 250 ml of PM broth (of formulation as described in Example 1(a) above) was charged to a Duran bottle bunged with a breathable stopper and inoculated with a loopful of Streptococcus mutans R9 (as above). The bacterial culture was then incubated anaerobically for 2-3 days at 37° C., followed by centrifugation at 3600 rpm for 10 minutes. The supernatant was decanted to waste. The pellets remaining were resuspended in 12 ml of 0.1% peptone and the optical density at 540 nm (OD540) measured and adjusted (if required) by diluting with fresh PM broth to between 0.2 and 0.3 to give a stock inoculum culture.
(§2) Broth was prepared by adding 4% (w/v) glucose to 0.3% (w/v) TSB broth (GTSB). The broth was sterilised by aseptically passing the solution through a 0.22 μm filter into a sterile bottle.
Control incubations were prepared by adding 2.5 ml of the stock inoculum culture (adjusted to an OD540 of 0.2-0.3) to 2.5 ml of GTSB containing 4% (w/v) glucose in 0.3% (w/v) TSB.
A test flavour material/flavour was diluted in the GTSB to give a stock solution of flavour material/flavour with a final concentration of 25,000 ppm (250 mg flavour material/flavour in 10 ml of GTSB).
Flavour material/flavour incubations were prepared by adding 2.5 ml of the stock inoculum culture to 2.45 ml of GTSB, and 50 μl of flavour material/flavour stock solution. Thus, flavour materials/flavours were tested at a final concentration of 250 ppm, for their efficacy in inhibiting acid production from 2% glucose.
The mixtures were then incubated anaerobically.
After anaerobic incubation of the resulting mixtures for 18-24 hours, the pH of the suspensions was measured using a 476530M combination pH electrode (Mettler Toledo, 64 Boston Road, Beaumont Leys, Leicester, LE4 1AW), calibrated using pH 4 and pH 7 buffers. Results were recorded as the difference in pH change between broths containing flavour material/flavour and an untreated control.
Flavour materials useful in a flavour composition of the invention were tested at 250 ppm for their potential synergy with fluoride as described below.
Control and flavour material incubations were prepared as described in Example 1(b) above.
A fluoride stock solution (2,500 ppm F^−) was prepared by dissolving […] NaF in 10 ml of GTSB. For fluoride controls, 2.5 ml of stock inoculum culture was added to 2.48 ml of GTSB, and 20 μl of fluoride stock solution.
For flavour material and fluoride incubations, 2.5 ml of stock inoculum culture was added to 2.43 ml of GTSB, 50 μl of flavour material stock solution and 20 μl of fluoride stock solution.
The mixtures were incubated anaerobically.
(§3) After anaerobic incubation of the resulting mixtures for 18-24 hours, the pH of the suspensions was measured using a 476530M combination pH electrode (Mettler Toledo, 64 Boston Road, Beaumont Leys, Leicester, LE4 1AW), calibrated using pH 4 and pH 7 buffers. Results were recorded as the difference in pH change between broths.
If the pH of the incubated broth containing flavour material and fluoride was higher than that measured for incubated broths containing either flavour material or fluoride, then this was considered to indicate that there had been a synergistic effect between the flavour material and fluoride in reducing the acid production of Streptococcus mutans.

[2] = system: Streptococcus mutans R9; assay: Synergy of flavour material with xylitol in reducing acid production (glucose/xylitol broth pH test); assay type: cell-based; details: anaerobic incubation 18-24 hours, pH difference between broths
Experimental: Xylitol is a sugar substitute that has been used in many products as a non-cariogenic sweetener. The potential synergy between xylitol and a flavour material useful in the composition of the invention was investigated using a glucose/xylitol broth by the following method. Flavour materials were tested at 250 ppm unless otherwise stated.
as §1, §2
Control and flavour material incubations were prepared as described in Example 1(b) above. Xylitol synergy was investigated by adding 2.5 ml of stock inoculum culture to 2.5 ml of GTSB supplemented with 4% (w/v) xylitol. […]
as §3
If the pH of the incubated broth containing flavour material and xylitol was higher than that recorded for incubated broths containing either flavour material or xylitol, then this was considered to indicate that there was a synergy between the flavour material and xylitol in reducing the acid production of Streptococcus mutans. […]

Molecule | Synergy with Fluoride [1] | further results
CCCCCCCCCCO [Alcohol C10 (Decanol), decanol] | ++++ (Inhibition of acid production by an additional 0.75 pH units or more (i.e. >0.75 pH units in addition to the effect of fluoride or flavour material alone)) | –
CC(=O)/C=C/C1C(C)=CCCC1(C)C (stereo not drawn) [Ionone Alpha, ionone alpha] | – | Synergy with Xylitol ([2]; flavour material at 125 ppm): ++++ (Inhibition of acid production by an additional 0.75 pH units or more (i.e. >0.75 pH units in addition to the effect of fluoride or flavour material alone))
CC(C)=CCCC(C)=CC=O [Citral Natural, citral] | + (Inhibition of acid production by an additional 0.01-0.24 pH units) | –
CCCCCCCCCO [Alcohol C9, nonanol] | – | Synergy with Xylitol ([2]; flavour material at 62.5 ppm): +++ (Inhibition of acid production by an additional 0.50-0.74 pH units)
Cc1ccc(C(C)C)c(O)c1 [Thymol, thymol] | + (Inhibition of acid production by an additional 0.01-0.24 pH units) | –
O=C/C=C/c1ccccc1 [Cinnamic Aldehyde Extra, cinnamic aldehyde] | ++ (Inhibition of acid production by an additional 0.25-0.49 pH units) | –
Damascone | – | Synergy with Xylitol ([2]; flavour material at 250 ppm): ++ (Inhibition of acid production by an additional 0.25-0.49 pH units)
CCCCCCCCCC=O [Aldehyde C10 (Decanal), decanal] | ++ (Inhibition of acid production by an additional 0.25-0.49 pH units) | –
CC=Cc1ccc(OC)cc1 [Anethole Synthetic, anethole] | ++++ (Inhibition of acid production by an additional 0.75 pH units or more (i.e. >0.75 pH units in addition to the effect of fluoride or flavour material alone)) | –
